Measured values taken from PubChem BioAssay AID179 (DTP/NCI, 2004).
“And” between values parts separate entries of the source, which are not always exact repeats. Equal entries are not always repeated. The source made the active and inactive calls.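 The calls were made as follows: active = compounds giving half or more protection of infected cells from virus-caused growth loss, again on retest; inactive = the rest.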

Tested on: CEM cells HIV-1 protection, formazan growth assay
Test: NCI AIDS Antiviral Assay
Conditions: for IC50: measured here: growth of uninfected CEM cells
Procedure, shortened: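 Human CEM cells, uninfected and HIV-1-infected, received five drug concentrations, and growth was read by soluble formazan assay. Compounds giving at least 50% protection were retested; reproducible 100% protection defined confirmed active.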

Row | SMILES | EC50 | IC50 | outcome
1 | N#CC(/C(=N\NC(N)=S)C(=O)NC1C2CC3CC(C2)CC1C3)c1ccc(Cl)cc1 (stereo not given) | > 17 µM | > 17 µM | –
2 | COc1cc(C(=O)O[C@@H]2[C@@H](OC(=O)c3cc(OC)c(OC)c(OC)c3)[C@@H](OC)O[C@@H]3CO[C@@H](c4ccccc4)O[C@@H]23)cc(OC)c1OC | > 200 µM | > 200 µM | –
3 | CC1=NN(C(=O)c2ccc(Cl)cc2)C(=O)/C1=C/c1cccc([N+](=O)[O-])c1 | > 19.5 µM | > 19.5 µM | –
4 | COc1ccc(/C=C2\CCc3cc(OC)c(OC)cc3C2=O)cc1 | – | – | inactive
5 | N#CCCN(CCNc1ccccc1)C(=O)Nc1ccc(NC(=O)N(CCC#N)CCNc2ccccc2)cc1 | > 200 µM | > 200 µM | –
6 | O=C1C=CC(O)=CC1=P(c1ccccc1)(c1ccccc1)c1ccccc1 | > 200 µM | 32.4 µM | –
7 | O=C1OCCN1N1C(=O)CC2(CCN(Cc3ccccc3)CC2)C1=O | > 200 µM | > 200 µM | –
8 | Cc1cn(C2CC(ON3C(=O)c4ccccc4C3=O)C(CO)O2)c(=O)[nH]c1=O (stereo not given) | 26.9 µM and > 200 µM | > 200 µM | –
9 | Cc1ccc(S(=O)(=O)n2cc(C=O)c(-c3cn(S(=O)(=O)c4ccc(C)cc4)cc3-c3cn(S(=O)(=O)c4ccc(C)cc4)cc3C=O)c2)cc1 | > 200 µM | 19.5 µM | –
10 | N#CNC(N)=Nc1cc2ccccc2c2ccccc12 | > 100 µM | 4.27 µM | –
11 | CCN1C[C@]2(COC)CCC(O)C34[C@@H]5C[C@@H]6C(O)[C@@H]5[C@](O)(C[C@@H]6OC)[C@@H](C(OC)[C@@H]32)[C@H]14 (stereo not given in full) | – | – | inactive
12 | Cc1csc2nc3[nH]ncc3c(=O)n12 | > 200 µM | 97.7 µM | –
13 | CCOC(=O)Nc1nc2cc(C(=O)OC)n(C)c2s1 | > 200 µM | > 200 µM | –
14 | Cc1ccc(N=Nc2c(C)n(-c3ccc4scnc4c3)c(=S)n(-c3ccccc3)c2=O)cc1 | > 75.9 µM | > 75.9 µM | –
15 | C=CCNC(=S)N/C=C(\c1ccccc1)S(=O)Cc1ccccc1 (stereo not given) | > 200 µM | > 200 µM | –
16 | COc1ccc(CNc2nc3cc(C(F)(F)F)ccc3nc2C(=O)O)cc1OC | > 200 µM | 66.1 µM | –
17 | NS(=O)(=O)c1nnc(NC(=O)Nc2ccc(Cl)c(Cl)c2)s1 | > 200 µM | 26.3 µM | –
18 | CC(CCNC(=O)c1ccccc1)(CCNC(=O)c1ccccc1)[N+](=O)[O-] | > 200 µM | > 200 µM | –
19 | CCc1ccccc1C(C(=O)NC1CN2CCC1CC2)c1ccsc1 (stereo not given) | > 200 µM | 61.7 µM | –
20 | COc1cc(/C=N/NC2=NCCN2)ccc1O | > 200 µM | > 200 µM | –
21 | CC#CC(=O)Nc1ccccc1CC(c1c[nH]c2ccccc12)c1c[nH]c2ccccc12 | > 35.5 µM | 19.1 µM | –
22 | Cc1ccc2c(c1)nc1c3ccccc3nc(-c3ccccc3N)n21 | > 28.8 µM | > 28.8 µM | –

Row | SMILES | EC50 | IC50 | outcome
23 | CCOC(=O)c1oc2cc3c(c4c2c1-c1ccccc1N4C)C=CC(C)(C)O3 | > 200 µM | 120 µM | –
24 | Nc1cccc(C#Cc2cccc(C#Cc3cccc(N)n3)n2)n1 | > 200 µM | 75.9 µM | –
25 | Cc1cccc(C)c1Nc1nc(C)c(C(=O)CC(=O)C(=O)Nc2c(C(C)C)cccc2C(C)C)s1 | > 200 µM | > 200 µM | –
26 | C=CCC1NCCC2=C1C(S(=O)(=O)c1ccc(C)cc1)c1ccccc12 (stereo not given) | > 200 µM | 10.5 µM | –
27 | CN(C)CC1CCCC/C1=N\OC(=O)c1ccccc1 (stereo not given) | – | – | inactive
28 | CC1=C(c2cc(C(=O)Nc3ccc(Cl)cc3)nc(=S)[nH]2)Sc2ccccc2N1 | > 85.1 µM | > 85.1 µM | –
29 | O=C1CCOc2cc(ccc2O)CCN1 | > 200 µM | > 200 µM | –
30 | CC(=O)CC(OC(C)=O)C1=CCC2C(CC1C)OC(=O)C2C (stereo not given) | > 224 µM | 39.8 µM | –
31 | CC12CCC(C(S(=O)(=O)Nc3ccccc3)C1=O)C2(C)C (stereo not given) | > 200 µM | 138 µM | –
32 | CCOCN1COCN(C)C1=O | > 1450 µM | > 1450 µM | –
33 | O=CNNC(=O)Nc1ccc(Cl)cc1 | > 200 µM | > 200 µM | –
34 | CCOC(=O)c1nc(C)c(-c2ccccc2)c(-c2ccccc2)c1C | > 11.5 µM | > 11.5 µM | –
35 | Cc1cc2c(c(=O)n1C)SCC2 | > 200 µM | > 200 µM | –
36 | O=C1Oc2ccccc2C(=O)/C1=C/N1C(=O)N/C(=C\c2ccccc2O)C1=O | > 200 µM | 123 µM | –
37 | C=CCN1C(=O)CC(=O)N(NC2=NNC3(C(=O)N2)c2ccccc2-c2ccccc23)C1=S | > 200 µM | 79.4 µM | –
38 | O=Nc1c(-c2ccccc2)nc2ccccn12 | > 200 µM | 38.9 µM | –
39 | O=C(/C=C/c1ccc2c(c1)OCO2)c1ccc(O)cc1 | > 200 µM | 29.5 µM | –
40 | O=C(Nc1ccc(NC(=O)c2ccc(C3=NCCN3)cc2)cc1)Nc1ccc(C2=NCCN2)cc1 | > 200 µM | 50.1 µM | –
41 | O=C(O)C12CCCCC1CCCC2 (stereo not given) | > 372 µM | > 372 µM | –
42 | COc1ccc(N=NC(=O)NC(CC(C)C)C(=O)NC(Cc2ccccc2)C(=O)O)cc1 (stereo not given) | > 200 µM | 3.09 µM | –
43 | CCCc1cc(=O)oc2c3c(c4c(c12)OC(C)(C)CC4)O[C@H](C)C(C)C3O (stereo not given in full) | > 200 µM | 25.1 µM | –
44 | [N-]=[N+]=Nc1nc2ccccc2c(N=[N+]=[N-])c1Cl | > 200 µM | 132 µM | –

Row | SMILES | EC50 | IC50 | outcome
45 | O=S(=O)(/N=S(/Nc1ccccc1)C(F)(F)Cl)c1ccccc1 (stereo not given) | > 200 µM | > 200 µM | –
46 | CCOC(=O)/C(=C/c1ccco1)C(=O)c1ccccc1 | > 132 µM | 77.6 µM | –
47 | CCc1cccc(C(C)C)c1NC(=O)C(=O)C(Cc1nc2ccccc2[nH]c1=O)C(=O)OC (stereo not given) | > 112 µM | > 112 µM | –
48 | O=C(N/N=C/c1ccccc1O)c1ccccc1Nc1ccccc1C(=O)N/N=C/c1ccccc1O | > 42.7 µM | 1.82 µM | –
49 | C/C(=N\NC(=S)N/N=C(\C)c1ccccn1)c1ccccn1 | > 200 µM | 1.32 µM | –
50 | C#CC(O)c1ccc(OC)c(OC)c1 (stereo not given) | – | – | inactive
51 | CNC(=O)OCc1nc(SC)n(C)c1COC(=O)NC | > 708 µM | 309 µM | –
52 | CC(=O)/C(=C/n1c(=S)[nH]c2ccc([N+](=O)[O-])cc21)C(=O)Nc1ccc([N+](=O)[O-])cc1 | > 200 µM | 33.1 µM | –
53 | CO/N=C1\CC(NC(=O)C(F)(F)F)c2ccsc21 (stereo not given) | > 200 µM | > 200 µM | –
54 | O=C(N/N=C/c1ccco1)c1cccnc1 | > 200 µM | > 200 µM | –
55 | C=C1CC(C)(Cn2cnc3c(N)ncnc32)OC1=O (stereo not given) | > 200 µM | 11.2 µM | –
56 | C=C(C)C1CC=C(C)C(O)([C@@]2(O)C[C@H](C(=C)C)CC=C2C)C1 (stereo not given in full) | – | – | inactive
57 | COc1cc(CC2c3cc(OC)c(OC)cc3CCN2C)ccc1O (stereo not given) | > 380 µM | 138 µM | –
58 | OCC1(CO)CC2C3C=CC(C3)C2C1 (stereo not given) | > 229 µM | > 229 µM | –
59 | Cc1c(C(=O)O)oc2ccc([N+](=O)[O-])cc12 | – | – | inactive
60 | C/C(=N\NC(=S)N1CCCCCC1)c1ccccn1 | > 49 µM | 0.0372 µM | –
61 | O=c1[nH]nc(Cc2ccccc2)n1Nc1ccccc1 | > 200 µM | > 200 µM | –
62 | COC(=O)/C(=N\NC(=O)c1ccccc1O)C(C#N)c1ccc(Cl)cc1 (stereo not given) | > 479 µM | 0.912 µM | –
63 | CC(C)(C)[Si](C)(C)OC1C(=O)C(CO)OC1n1ccc(=O)[nH]c1=O (stereo not given) | > 200 µM | > 200 µM | –
64 | CC1=CC(Nc2ccc(S(=O)(=O)c3ccc(NC4=NCCNC(C)=C4)cc3)cc2)=NCCN1 | > 200 µM | > 200 µM | –
65 | N#C/C(=C\c1ccc(Cl)cc1)c1ccccc1 | > 200 µM | 32.4 µM | –
66 | COc1cccc2c1C(=O)c1c(O)c3c(c(O)c1C2=O)C[C@@](O)(C(=O)CO)C[C@@H]3OC1CC(N(C)C)C(O)C(C)O1 (stereo not given in full) | > 0.2 µM | 0.0631 µM | –

Row | SMILES | EC50 | IC50 | outcome
67 | CC(=O)OCC(=O)[C@@]1(O)CC[C@H]2[C@@H]3CCC4=CC(=O)C[C@H](SC(C)=O)[C@]4(C)[C@H]3CC[C@@]21C | > 200 µM | 117 µM | –
68 | O=C1C(Cl)N(c2c(Cl)cccc2Cl)C1c1c[nH]c2ccccc12 (stereo not given) | > 257 µM | 115 µM | –
69 | O=C(c1cccc(Cl)c1)c1c(O)c2ccccc2oc1=O | – | – | inactive
70 | CC(C)[C@](O)(C(=O)OCC1=CC[N+]2([O-])CC[C@@H](O)[C@@H]12)[C@H](C)O (stereo not given in full) | > 398 µM | > 398 µM | –
71 | C=C(Br)CN(CC(=C)Br)C(C)=O | > 200 µM | > 200 µM | –
72 | CCOC(=O)/C(=C/c1ccc2ccccc2c1)P(=O)(OCC)OCC | > 100 µM | 24 µM | –
73 | CCN(C(=S)N[C@@H](Cc1ccccc1)C(=O)N[C@@H](CC(C)C)C(=O)OC)c1ccccc1 | > 200 µM | 25.7 µM | –
74 | CC1(C)/C=C/CC2(C)Oc3ccccc3C[C@@H]2CCC2(C)Oc3ccccc3C[C@@H]2C1 (stereo not given in full) | > 12 µM | > 12 µM | –
75 | CC1(C)OCC(C2OC(=O)C(OCc3ccccc3)=C2OCc2ccccc2)O1 (stereo not given) | > 200 µM | > 200 µM | –
76 | O=C(CC1(O)C(=O)Nc2c(Cl)cc(Cl)cc21)c1ccc2ccccc2c1 (stereo not given) | > 49 µM | 20.4 µM | –
77 | O=C1NC(=S)N/C1=C\c1ccc(Cl)cc1 | > 200 µM | 105 µM | –
78 | O=C(O)c1ccc(CS(=O)c2ccccc2)c([N+](=O)[O-])c1 (stereo not given) | – | – | inactive
79 | O=C(O)c1ccc(C2SCc3nc4ccccc4n32)cc1 (stereo not given) | > 200 µM | > 200 µM | –
80 | O=C1CC(=O)N(CCc2ccccn2)C(=O)N1CCc1ccccn1 | – | – | inactive
81 | C=CC(=O)NCCSSCCNC(=O)C=C | > 200 µM | 115 µM | –
82 | Nc1ccc(/C=C/c2ccc(N=Nc3ccc(/C=C/c4ccc(N=Nc5ccc(/C=C/c6ccc(N=Nc7ccc(/C=C/c8ccc(N)cc8S(=O)(=O)O)c(S(=O)(=O)O)c7)cc6S(=O)(=O)O)c(S(=O)(=O)O)c5)cc4S(=O)(=O)O)c(S(=O)(=O)O)c3)cc2S(=O)(=O)O)c(S(=O)(=O)O)c1 | 1.78 µM | 186 µM | –
83 | NC(=O)O/N=C/c1ccccn1 | > 200 µM | > 200 µM | –
84 | CSCCCNC(=O)c1csc(-c2csc(CCNC(=O)CNC(=O)CNC(=O)OC(C)(C)C)n2)n1 | > 447 µM | 214 µM | –
85 | O=C1CCCCCN1C(=O)c1ccccc1 | > 1150 µM | 53.7 µM | –
86 | CCCNC(=O)c1nc(SC)sc1NC(=O)c1ccccc1 | > 200 µM | > 200 µM | –
87 | CC(=N)N(C)O | > 2000 µM | > 2000 µM | –
